Results from ChEMBL document CHEMBL3885881, “DrugMatrix”.
Values joined by “and” are separate entries in the source; they are usually repeats but may differ in a detail not shown here. Equal values may be shown once.

Species: Rattus norvegicus
Experiment: DrugMatrix - Regimen: Daily Repeat
Assay type: toxicity, organism-based, Sprague-Dawley
Set-up: regimen Daily Repeat, gender Male, age 6-8 weeks
Conditions: in vivo, iv; for ABSOLUTE BASOPHIL / ABSOLUTE EOSINOPHIL / ABSOLUTE LYMPHOCYTE / ABSOLUTE MONOCYTE / ABSOLUTE SEGMENTED NEUTROPHIL / BASOPHIL / EOSINOPHIL / ERYTHROCYTE COUNT / HEMATOCRIT / HEMOGLOBIN / LEUKOCYTE COUNT / LYMPHOCYTE / MEAN CORPUSCULAR HEMOGLOBIN / MEAN CORPUSCULAR HEMOGLOBIN CONCENTRATION / MEAN CORPUSCULAR VOLUME / MONOCYTE / NEUTROPHIL / NUCLEATED RED BLOOD CELLS / PLATELET COUNT: tissue Blood; for ALANINE AMINOTRANSFERASE / ALBUMIN / ALKALINE PHOSPHATASE / ASPARTATE AMINOTRANSFERASE / BLOOD UREA NITROGEN / CARBON DIOXIDE / CHLORIDE / CHOLESTEROL / CREATINE PHOSPHOKINASE / CREATININE / GLUCOSE / LACTATE DEHYDROGENASE / LIPASE / PHOSPHORUS / POTASSIUM / SODIUM / TOTAL BILIRUBIN / TOTAL PROTEIN / URIC ACID: tissue Plasma
[1] = 0 mg/kg, 72 h, dose level Control, time 3 day, vehicle 100 % SALINE
[2] = 0 mg/kg, 120 h, dose level Control, time 5 day, vehicle 10 % DMSO/SALINE
[3] = 0 mg/kg, 120 h, dose level Control, time 5 day, vehicle 100 % SALINE
[4] = 0 mg/kg, […], dose level Control, time 14 day, vehicle 100 % SALINE
[5] = 4 mg/kg, 120 h, dose level High, time 5 day, vehicle 10 % DMSO/SALINE

SMILES: CC(=O)[C@]1(O)Cc2c(O)c3c(c(O)c2[C@@H](O[C@H]2C[C@H](N)[C@H](O)[C@H](C)O2)C1)C(=O)c1ccccc1C3=O [IDARUBICIN]
- ABSOLUTE BASOPHIL [1]: 0 CELLS/uL
- ABSOLUTE EOSINOPHIL [1]: 247.67 CELLS/uL
- ABSOLUTE LYMPHOCYTE [1]: 13190.83 CELLS/uL
- ABSOLUTE MONOCYTE [1]: 307.67 CELLS/uL
- ABSOLUTE SEGMENTED NEUTROPHIL [1]: 1220.5 CELLS/uL
- BASOPHIL [1]: 0%
- EOSINOPHIL [1]: 1.67%
- ERYTHROCYTE COUNT [1]: 5.47 x10E6/uL
- HEMATOCRIT [1]: 33.98%
- HEMOGLOBIN [1]: 12.65 G/DL
- LEUKOCYTE COUNT [1]: 14.97 x10E3/uL
- LYMPHOCYTE [1]: 88.17%
- MEAN CORPUSCULAR HEMOGLOBIN [1]: 23.17 pg
- MEAN CORPUSCULAR HEMOGLOBIN CONCENTRATION [1]: 37.23 G/DL
- MEAN CORPUSCULAR VOLUME [1]: 62.25 fL
- MONOCYTE [1]: 2%
- NEUTROPHIL [1]: 8.17%
- NUCLEATED RED BLOOD CELLS [1]: 0 /100WBC
- PLATELET COUNT [1]: 1307.17 x10E3/uL
- ALANINE AMINOTRANSFERASE [1]: 39.67 u/L
- ALBUMIN [1]: 4.08 G/DL
- ALKALINE PHOSPHATASE [1]: 383.17 u/L
- ASPARTATE AMINOTRANSFERASE [1]: 88.83 u/L
- BLOOD UREA NITROGEN [1]: 18.5 mg/dL
- CARBON DIOXIDE [1]: 27.5 mmol/L
- CHLORIDE [1]: 103 MEQ/L
- CHOLESTEROL [1]: 67.33 mg/dL
- CREATINE PHOSPHOKINASE [1]: 414.67 u/L
- CREATININE [1]: 0.19 mg/dL
- GLUCOSE [1]: 149.33 mg/dL
- LACTATE DEHYDROGENASE [1]: 536.83 u/L
- LIPASE [1]: 8.83 u/L
- PHOSPHORUS [1]: 11.13 mg/dL
- POTASSIUM [1]: 6.23 MEQ/L
- SODIUM [1]: 144.42 MEQ/L
- TOTAL BILIRUBIN [1]: 0.18 mg/dL
- TOTAL PROTEIN [1]: 5.57 G/DL
- URIC ACID [1]: 1.23 mg/dL
- BASOPHIL [2]: 0.28%
- EOSINOPHIL [2]: 0.55%
- ERYTHROCYTE COUNT [2]: 7.09 x10E6/uL
- HEMATOCRIT [2]: 45.85%
- HEMOGLOBIN [2]: 14.93 G/DL
- LEUKOCYTE COUNT [2]: 7.4 x10E3/uL
- LYMPHOCYTE [2]: 84.22%
- MEAN CORPUSCULAR HEMOGLOBIN [2]: 21.05 pg
- MEAN CORPUSCULAR HEMOGLOBIN CONCENTRATION [2]: 32.5 G/DL
- MEAN CORPUSCULAR VOLUME [2]: 64.72 fL
- MONOCYTE [2]: 1.4%
- NEUTROPHIL [2]: 12.45%
- PLATELET COUNT [2]: 1476.75 x10E3/uL
- ABSOLUTE SEGMENTED NEUTROPHIL [3]: 1104.67 CELLS/uL
- BASOPHIL [3]: 1.05% and 0%
- EOSINOPHIL [3]: 0.23% and 1%
- ERYTHROCYTE COUNT [3]: 6.68 x10E6/uL and 5.73 x10E6/uL
- HEMATOCRIT [3]: 42.27% and 36.85%
- HEMOGLOBIN [3]: 13 G/DL and 13.67 G/DL
- LEUKOCYTE COUNT [3]: 19.36 x10E3/uL and 15.13 x10E3/uL
- LYMPHOCYTE [3]: 62.82% and 89.5%
- MEAN CORPUSCULAR HEMOGLOBIN [3]: 19.43 pg and 23.87 pg
- MEAN CORPUSCULAR HEMOGLOBIN CONCENTRATION [3]: 30.68 G/DL and 37.1 G/DL
- MEAN CORPUSCULAR VOLUME [3]: 63.25 fL and 64.33 fL
- MONOCYTE [3]: 3.45% and 2.33%
- NUCLEATED RED BLOOD CELLS [3]: 0.17 /100WBC
- PLATELET COUNT [3]: 1275.5 x10E3/uL and 1266 x10E3/uL
- ALANINE AMINOTRANSFERASE [2]: 21.25 u/L
- ALBUMIN [2]: 4.28 G/DL
- ALKALINE PHOSPHATASE [2]: 337.5 u/L
- ASPARTATE AMINOTRANSFERASE [2]: 87.25 u/L
- BLOOD UREA NITROGEN [2]: 13 mg/dL
- CARBON DIOXIDE [2]: 27 mmol/L
- CHLORIDE [2]: 106.75 MEQ/L
- CHOLESTEROL [2]: 54.5 mg/dL
- CREATINE PHOSPHOKINASE [2]: 424.75 u/L
- CREATININE [2]: 0.47 mg/dL
- GLUCOSE [2]: 135.75 mg/dL
- LACTATE DEHYDROGENASE [2]: 200.25 u/L
- LIPASE [2]: 9 u/L
- PHOSPHORUS [2]: 11.62 mg/dL
- POTASSIUM [2]: 5.58 MEQ/L
- SODIUM [2]: 150.5 MEQ/L
- TOTAL BILIRUBIN [2]: 0.25 mg/dL
- TOTAL PROTEIN [2]: 6.33 G/DL
- URIC ACID [2]: 1.75 mg/dL
- ALANINE AMINOTRANSFERASE [3]: 62.75 u/L and 49.17 u/L
- ALBUMIN [3]: 3.2 G/DL and 4.22 G/DL
- ALKALINE PHOSPHATASE [3]: 320.75 u/L and 352.67 u/L
- ASPARTATE AMINOTRANSFERASE [3]: 112.25 u/L and 95.17 u/L
- BLOOD UREA NITROGEN [3]: 14.25 mg/dL and 18.83 mg/dL
- CARBON DIOXIDE [3]: 36.25 mmol/L and 25.67 mmol/L
- CHLORIDE [3]: 106.25 MEQ/L and 102.67 MEQ/L
- CHOLESTEROL [3]: 63.5 mg/dL and 66.83 mg/dL
- CREATINE PHOSPHOKINASE [3]: 757.75 u/L and 550.33 u/L
- CREATININE [3]: 0.23 mg/dL
- GLUCOSE [3]: 175.5 mg/dL and 186.17 mg/dL
- LACTATE DEHYDROGENASE [3]: 205.25 u/L and 471.33 u/L
- PHOSPHORUS [3]: 11.35 mg/dL and 12.3 mg/dL
- POTASSIUM [3]: 6.7 MEQ/L and 6.35 MEQ/L
- SODIUM [3]: 151.25 MEQ/L and 143.57 MEQ/L
- TOTAL BILIRUBIN [3]: 0.2 mg/dL and 0.18 mg/dL
- TOTAL PROTEIN [3]: 5.78 G/DL and 6.05 G/DL
- URIC ACID [3]: 1.23 mg/dL and 2 mg/dL
- ABSOLUTE BASOPHIL [4]: 400 cells/µL
- ABSOLUTE EOSINOPHIL [4]: 46.7 cells/µL
- ABSOLUTE LYMPHOCYTE [4]: 18600 cells/µL
- ABSOLUTE MONOCYTE [4]: 760 cells/µL
- BASOPHIL [4]: 1.73%
- EOSINOPHIL [4]: 0.2%
- ERYTHROCYTE COUNT [4]: 7.04 x10E6/uL
- HEMATOCRIT [4]: 41.83%
- HEMOGLOBIN [4]: 13.07 G/DL
- LEUKOCYTE COUNT [4]: 24.9 x10E3/uL
- LYMPHOCYTE [4]: 74.43%
- MEAN CORPUSCULAR HEMOGLOBIN [4]: 18.63 pg
- MEAN CORPUSCULAR HEMOGLOBIN CONCENTRATION [4]: 31.33 G/DL
- MEAN CORPUSCULAR VOLUME [4]: 59.43 fL
- MONOCYTE [4]: 3.13%
- NEUTROPHIL [4]: 18.97%
- PLATELET COUNT [4]: 1314.33 x10E3/uL
- ALANINE AMINOTRANSFERASE [4]: 42.67 u/L
- ALBUMIN [4]: 3.6 G/DL
- ALKALINE PHOSPHATASE [4]: 298 u/L
- ASPARTATE AMINOTRANSFERASE [4]: 67.33 u/L
- BLOOD UREA NITROGEN [4]: 14.33 mg/dL
- CARBON DIOXIDE [4]: 41.67 mmol/L
- CHLORIDE [4]: 102.67 MEQ/L
- CHOLESTEROL [4]: 62.67 mg/dL
- CREATINE PHOSPHOKINASE [4]: 338.67 u/L
- CREATININE [4]: 0.7 mg/dL
- GLUCOSE [4]: 147.33 mg/dL
- LACTATE DEHYDROGENASE [4]: 94.33 u/L
- LIPASE [4]: 80 u/L
- PHOSPHORUS [4]: 9.6 mg/dL
- POTASSIUM [4]: 6.67 MEQ/L
- SODIUM [4]: 148 MEQ/L
- TOTAL BILIRUBIN [4]: 0.2 mg/dL
- TOTAL PROTEIN [4]: 6.67 G/DL
- URIC ACID [4]: 1.03 mg/dL
- BASOPHIL [5]: 0.8%
- EOSINOPHIL [5]: 2.95%
- ERYTHROCYTE COUNT [5]: 7.46 x10E6/uL
- HEMATOCRIT [5]: 47.3%
- HEMOGLOBIN [5]: 15.42 G/DL
- LEUKOCYTE COUNT [5]: 0.0975 x10E3/uL
- LYMPHOCYTE [5]: 69%
- MEAN CORPUSCULAR HEMOGLOBIN [5]: 20.73 pg
- MEAN CORPUSCULAR HEMOGLOBIN CONCENTRATION [5]: 32.67 G/DL
- MEAN CORPUSCULAR VOLUME [5]: 63.45 fL
- MONOCYTE [5]: 1.3%
- NEUTROPHIL [5]: 23.9%
- PLATELET COUNT [5]: 879.25 x10E3/uL
- ALANINE AMINOTRANSFERASE [5]: 11.75 u/L
- ALBUMIN [5]: 2.88 G/DL
- ALKALINE PHOSPHATASE [5]: 156 u/L
- ASPARTATE AMINOTRANSFERASE [5]: 63.5 u/L
- BLOOD UREA NITROGEN [5]: 18 mg/dL
- CARBON DIOXIDE [5]: 25 mmol/L
- CHLORIDE [5]: 112 MEQ/L
- CHOLESTEROL [5]: 152.75 mg/dL
- CREATINE PHOSPHOKINASE [5]: 475.25 u/L
- CREATININE [5]: 0.5 mg/dL
- GLUCOSE [5]: 116.5 mg/dL
- LACTATE DEHYDROGENASE [5]: 183.5 u/L
- LIPASE [5]: 13 u/L
- PHOSPHORUS [5]: 9.47 mg/dL
- POTASSIUM [5]: 5.03 MEQ/L
- SODIUM [5]: 151 MEQ/L
- TOTAL BILIRUBIN [5]: 0.2 mg/dL
- TOTAL PROTEIN [5]: 4.57 G/DL
- URIC ACID [5]: 1.45 mg/dL
